Laboratory results reported in paper PMC11580984 (bioRxiv, 2024).
Numbered stars: 1 amine (or outer) side, 2 acyl side, 3 side chain; on linkers, the order of the positions; unused ones are H or OH. Bridge positions count the residues as written; N and C are the ends. Square brackets hold non-standard residues; d marks the D form. Peptide text beside a SMILES is read from it. X1 = O=S(=O)(F)Oc1cc(C[*:1])cc(C[*:2])c1; X2 = Oc1cc(C[*:1])cc(C[*:2])c1; Pra = C#CC[C@H](N)C(=O)O

What was measured:
[1] = system: interaction between Omicron BA2 spike and ACE2; type: binding, SARS-CoV-2
BSA = BSA (Bos taurus, UniProt P02769); type: binding; details: highest concentration tested
SARS-CoV-2 omicron BA.2 = type: cell-based

Sequence of BSA (P02769 25-607): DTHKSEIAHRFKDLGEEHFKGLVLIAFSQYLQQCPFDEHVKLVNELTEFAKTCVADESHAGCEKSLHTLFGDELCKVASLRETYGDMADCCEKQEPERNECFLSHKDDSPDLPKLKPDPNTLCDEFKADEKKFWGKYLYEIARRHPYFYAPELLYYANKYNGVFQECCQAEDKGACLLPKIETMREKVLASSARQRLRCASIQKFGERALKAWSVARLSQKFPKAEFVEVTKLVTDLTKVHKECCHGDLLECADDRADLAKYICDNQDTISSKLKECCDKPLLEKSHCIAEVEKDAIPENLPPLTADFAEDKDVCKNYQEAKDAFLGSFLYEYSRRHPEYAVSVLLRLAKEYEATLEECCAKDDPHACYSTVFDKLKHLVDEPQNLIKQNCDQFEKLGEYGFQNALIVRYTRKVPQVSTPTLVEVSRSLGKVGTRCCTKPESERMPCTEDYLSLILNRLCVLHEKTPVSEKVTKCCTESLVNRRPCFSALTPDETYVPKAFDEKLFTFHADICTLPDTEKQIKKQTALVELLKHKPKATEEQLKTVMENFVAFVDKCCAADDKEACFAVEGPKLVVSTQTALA

Row | Molecule | inhibition activity in MSD assay [1] | labeling of BSA (BSA) | antiviral activity (SARS-CoV-2 Omicron BA2) | antiviral activity (SARS-CoV-2 Omicron BA5) | antiviral activity (SARS-CoV-2 Omicron BA1) | change of inhibitory potency after 10-fold dilution (SARS-CoV-2 omicron BA.2) | EC50 (SARS-CoV-2 Omicron BA5)
1 | C#CC[C@H](N)C(=O)N[C@@H](CCC(N)=O)C(=O)N[C@H]1CSCc2cc(cc(OS(=O)(=O)F)c2)CSC[C@@H](C(=O)NCC(N)=O)NC(=O)[C@H](CC(C)C)NC(=O)[C@H](C(C)C)NC(=O)[C@H](Cc2ccc(O)cc2)NC(=O)[C@H](CC(C)C)NC(=O)[C@H](CC(=O)O)NC(=O)[C@H](CCC(N)=O)NC(=O)[C@H](C(C)C)NC1=O [CP_SW3A] (H-[Pra]QCVQDLYVLCG-NH2; linker 3-11 via X1) | strong activity | only faint labeling |  |  |  |  | 
2 | C#CC[C@H](N)C(=O)N[C@@H](CCC(N)=O)C(=O)N[C@H]1CSCc2cc(O)cc(c2)CSC[C@@H](C(=O)NCC(N)=O)NC(=O)[C@H](CC(C)C)NC(=O)[C@H](C(C)C)NC(=O)[C@H](Cc2ccc(O)cc2)NC(=O)[C@H](CC(C)C)NC(=O)[C@H](CC(=O)O)NC(=O)[C@H](CCC(N)=O)NC(=O)[C@H](C(C)C)NC1=O [CP_SW3A_Bz] (H-[Pra]QCVQDLYVLCG-NH2; linker 3-11 via X2) |  |  | only weak background activity | only weak background activity | only weak background activity |  | 
3 | C#CC[C@H](N)C(=O)N[C@@H](CCC(N)=O)C(=O)N[C@H]1CSSC[C@@H](C(=O)NCC(N)=O)NC(=O)[C@H](CC(C)C)NC(=O)[C@H](C(C)C)NC(=O)[C@H](Cc2ccc(O)cc2)NC(=O)[C@H](CC(C)C)NC(=O)[C@H](CC(=O)O)NC(=O)[C@H](CCC(N)=O)NC(=O)[C@H](C(C)C)NC1=O [CP_SW3A_DS] (H-[Pra]QCVQDLYVLCG-NH2; disulfide 3-11) |  |  |  |  |  | dramatic loss of activity after dilution | 
4 | C#CC[C@H](NC(=O)[C@H](CCC(N)=O)NC(=O)[C@@H]1CSCc2cc(cc(OS(=O)(=O)F)c2)CSC[C@H](NC(=O)CN)C(=O)N[C@@H](CC(C)C)C(=O)N[C@@H](C(C)C)C(=O)N[C@@H](Cc2ccc(O)cc2)C(=O)N[C@@H](CC(C)C)C(=O)N[C@@H](CC(=O)O)C(=O)N[C@@H](CCC(N)=O)C(=O)N[C@@H](C(C)C)C(=O)N1)C(N)=O [CP_SW3A_S1] (H-GCLVYLDQVCQ[Pra]-NH2; linker 2-10 via X1) | loss of inhibition activities |  | only weak background activity | only weak background activity | only weak background activity |  | 
5 | C#CC[C@H](N)C(=O)N[C@@H](CCC(N)=O)C(=O)N[C@H]1CSCc2cc(cc(OS(=O)(=O)F)c2)CSC[C@@H](C(=O)NCC(N)=O)NC(=O)[C@H](C(C)C)NC(=O)[C@H](CCC(N)=O)NC(=O)[C@H](CC(=O)O)NC(=O)[C@H](CC(C)C)NC(=O)[C@H](Cc2ccc(O)cc2)NC(=O)[C@H](C(C)C)NC(=O)[C@H](CC(C)C)NC1=O [CP_SW3A_S2] (H-[Pra]QCLVYLDQVCG-NH2; linker 3-11 via X1) | loss of inhibition activities |  | only weak background activity | only weak background activity | only weak background activity |  | 
6 | Sotrovimab: monoclonal antibody targeting the spike protein of SARS-CoV-2, positive control [reference compound] |  |  |  |  |  |  | 7 µM
